Assay [1] concerns the target Muscarinic acetylcholine receptor M3 (Homo sapiens, UniProt P20309).
For assay [2], the target named is Sodium-dependent dopamine transporter (Homo sapiens, UniProt Q01959).
Assay [3] deals with Beta-1 adrenergic receptor (Homo sapiens, UniProt P08588). It counts as functional.
The next assay deals with Cannabinoid receptor 1 (Homo sapiens, UniProt P21554). It counts as functional, cell-based.
Assay [4] deals with T1, Amine oxidase [flavin-containing] A (Homo sapiens, UniProt P21397).
T1 sequence (P21397 whole entry): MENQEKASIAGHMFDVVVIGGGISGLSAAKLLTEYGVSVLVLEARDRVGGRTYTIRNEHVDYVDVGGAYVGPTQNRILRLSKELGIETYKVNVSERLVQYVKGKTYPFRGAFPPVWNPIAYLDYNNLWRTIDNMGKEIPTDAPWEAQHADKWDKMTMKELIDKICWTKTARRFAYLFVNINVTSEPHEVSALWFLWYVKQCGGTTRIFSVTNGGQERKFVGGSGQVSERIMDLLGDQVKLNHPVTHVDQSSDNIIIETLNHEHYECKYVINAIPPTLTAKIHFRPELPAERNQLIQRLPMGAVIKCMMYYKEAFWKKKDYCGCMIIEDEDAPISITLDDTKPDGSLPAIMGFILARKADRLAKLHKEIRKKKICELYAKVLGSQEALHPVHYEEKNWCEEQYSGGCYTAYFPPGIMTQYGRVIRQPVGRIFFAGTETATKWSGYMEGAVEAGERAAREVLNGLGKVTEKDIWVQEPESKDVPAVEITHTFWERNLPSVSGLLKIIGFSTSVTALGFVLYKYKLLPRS
It counts as functional.

Assay [5] addresses Neuronal acetylcholine receptor subunit alpha-4 (Homo sapiens, UniProt P43681).
The target of a further assay is T2, Endothelin-1 receptor (Homo sapiens, UniProt P25101).
T2 sequence (P25101 whole entry): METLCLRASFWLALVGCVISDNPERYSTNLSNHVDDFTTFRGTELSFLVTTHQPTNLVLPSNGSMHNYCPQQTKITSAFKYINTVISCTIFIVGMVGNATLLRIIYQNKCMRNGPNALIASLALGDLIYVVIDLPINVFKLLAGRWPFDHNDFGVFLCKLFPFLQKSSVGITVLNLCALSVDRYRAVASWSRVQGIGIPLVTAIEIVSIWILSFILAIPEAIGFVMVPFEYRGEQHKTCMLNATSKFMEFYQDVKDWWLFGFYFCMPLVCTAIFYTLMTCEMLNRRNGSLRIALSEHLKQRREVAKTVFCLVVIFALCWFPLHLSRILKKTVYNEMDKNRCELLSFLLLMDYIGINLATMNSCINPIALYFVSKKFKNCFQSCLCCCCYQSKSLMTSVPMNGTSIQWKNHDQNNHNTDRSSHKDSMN

Assay [6] addresses T3, 5-hydroxytryptamine receptor 2C (Homo sapiens, UniProt P28335).
T3 sequence (P28335 whole entry): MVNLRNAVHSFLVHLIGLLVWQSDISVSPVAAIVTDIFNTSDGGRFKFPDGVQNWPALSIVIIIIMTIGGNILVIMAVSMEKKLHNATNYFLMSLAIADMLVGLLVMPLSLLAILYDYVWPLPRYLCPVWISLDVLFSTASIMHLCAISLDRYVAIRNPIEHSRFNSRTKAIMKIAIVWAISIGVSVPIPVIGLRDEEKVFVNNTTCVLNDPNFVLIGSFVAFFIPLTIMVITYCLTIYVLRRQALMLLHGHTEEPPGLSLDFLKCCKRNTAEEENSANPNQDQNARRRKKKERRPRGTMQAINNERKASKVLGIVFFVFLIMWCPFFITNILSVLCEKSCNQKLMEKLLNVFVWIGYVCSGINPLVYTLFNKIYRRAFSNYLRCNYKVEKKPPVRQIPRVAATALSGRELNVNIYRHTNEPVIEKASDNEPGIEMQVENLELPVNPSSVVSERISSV

Assay [7] has as its target T4, Cholecystokinin receptor type A (Homo sapiens, UniProt P32238).
T4 sequence (P32238 whole entry): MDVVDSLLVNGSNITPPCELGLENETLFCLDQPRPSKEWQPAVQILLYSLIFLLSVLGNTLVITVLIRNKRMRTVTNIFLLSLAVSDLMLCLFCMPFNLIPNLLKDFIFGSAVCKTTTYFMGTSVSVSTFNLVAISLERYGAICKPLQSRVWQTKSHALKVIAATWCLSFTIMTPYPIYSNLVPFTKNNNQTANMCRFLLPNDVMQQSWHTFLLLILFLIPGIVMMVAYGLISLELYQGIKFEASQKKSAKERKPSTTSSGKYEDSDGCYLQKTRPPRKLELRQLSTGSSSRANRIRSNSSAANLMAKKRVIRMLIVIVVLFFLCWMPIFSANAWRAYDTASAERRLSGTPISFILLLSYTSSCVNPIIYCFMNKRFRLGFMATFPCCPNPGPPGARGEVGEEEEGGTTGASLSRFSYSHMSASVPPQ

In assay [8] the target is Voltage-dependent L-type calcium channel subunit alpha-1C (Rattus norvegicus, UniProt P22002). It counts as functional.
Another assay addresses Mu-type opioid receptor (Homo sapiens, UniProt P35372). As to the kind of experiment: biochemical. It counts as functional.

Some results are limits rather than exact numbers.

For orientation: AC50 means the midpoint of the concentration-response curve, whichever way the signal moves.
Further: assay procedure not described here.

Sequence of Beta-1 adrenergic receptor (P08588 whole entry): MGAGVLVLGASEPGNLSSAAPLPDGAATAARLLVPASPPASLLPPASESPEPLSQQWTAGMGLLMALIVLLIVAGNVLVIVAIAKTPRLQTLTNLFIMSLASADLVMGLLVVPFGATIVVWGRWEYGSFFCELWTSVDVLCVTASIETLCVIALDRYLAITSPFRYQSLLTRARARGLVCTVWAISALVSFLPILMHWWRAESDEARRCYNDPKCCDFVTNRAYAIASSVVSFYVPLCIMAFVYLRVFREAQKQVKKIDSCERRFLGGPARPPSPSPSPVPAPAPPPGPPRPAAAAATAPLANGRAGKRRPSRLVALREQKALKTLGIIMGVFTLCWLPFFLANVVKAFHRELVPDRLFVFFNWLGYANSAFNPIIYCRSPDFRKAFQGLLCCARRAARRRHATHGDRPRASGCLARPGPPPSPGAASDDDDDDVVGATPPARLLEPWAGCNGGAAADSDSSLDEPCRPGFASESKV
Sequence of Neuronal acetylcholine receptor subunit alpha-4 (P43681 whole entry): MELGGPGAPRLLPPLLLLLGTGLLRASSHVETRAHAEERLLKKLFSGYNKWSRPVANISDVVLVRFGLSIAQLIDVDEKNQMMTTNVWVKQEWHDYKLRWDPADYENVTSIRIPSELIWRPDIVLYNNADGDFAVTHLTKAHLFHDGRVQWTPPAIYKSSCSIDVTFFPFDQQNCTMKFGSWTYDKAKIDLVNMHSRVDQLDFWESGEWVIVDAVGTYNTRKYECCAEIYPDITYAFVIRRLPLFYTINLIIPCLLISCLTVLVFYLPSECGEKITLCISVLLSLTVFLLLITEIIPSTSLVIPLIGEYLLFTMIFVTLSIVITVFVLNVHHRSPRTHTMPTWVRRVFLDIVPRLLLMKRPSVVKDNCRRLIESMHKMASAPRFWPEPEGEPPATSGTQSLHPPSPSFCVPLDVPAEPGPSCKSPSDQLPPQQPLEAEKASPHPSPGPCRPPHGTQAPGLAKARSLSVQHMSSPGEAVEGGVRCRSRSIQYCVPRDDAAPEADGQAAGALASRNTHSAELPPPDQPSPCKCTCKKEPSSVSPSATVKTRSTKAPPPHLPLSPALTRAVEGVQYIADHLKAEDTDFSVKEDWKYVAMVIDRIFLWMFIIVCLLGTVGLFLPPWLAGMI
Sequence of Mu-type opioid receptor (P35372 whole entry): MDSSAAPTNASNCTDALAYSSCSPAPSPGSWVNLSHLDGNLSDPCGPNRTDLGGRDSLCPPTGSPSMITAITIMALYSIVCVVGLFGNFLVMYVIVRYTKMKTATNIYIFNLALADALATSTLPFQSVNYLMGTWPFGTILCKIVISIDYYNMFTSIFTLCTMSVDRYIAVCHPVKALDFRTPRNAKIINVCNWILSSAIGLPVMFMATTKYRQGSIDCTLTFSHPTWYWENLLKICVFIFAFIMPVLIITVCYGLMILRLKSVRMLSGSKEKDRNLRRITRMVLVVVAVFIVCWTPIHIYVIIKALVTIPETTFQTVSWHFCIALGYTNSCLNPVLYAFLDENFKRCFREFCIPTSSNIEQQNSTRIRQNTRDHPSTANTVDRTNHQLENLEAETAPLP
Sequence of Cannabinoid receptor 1 (P21554 whole entry): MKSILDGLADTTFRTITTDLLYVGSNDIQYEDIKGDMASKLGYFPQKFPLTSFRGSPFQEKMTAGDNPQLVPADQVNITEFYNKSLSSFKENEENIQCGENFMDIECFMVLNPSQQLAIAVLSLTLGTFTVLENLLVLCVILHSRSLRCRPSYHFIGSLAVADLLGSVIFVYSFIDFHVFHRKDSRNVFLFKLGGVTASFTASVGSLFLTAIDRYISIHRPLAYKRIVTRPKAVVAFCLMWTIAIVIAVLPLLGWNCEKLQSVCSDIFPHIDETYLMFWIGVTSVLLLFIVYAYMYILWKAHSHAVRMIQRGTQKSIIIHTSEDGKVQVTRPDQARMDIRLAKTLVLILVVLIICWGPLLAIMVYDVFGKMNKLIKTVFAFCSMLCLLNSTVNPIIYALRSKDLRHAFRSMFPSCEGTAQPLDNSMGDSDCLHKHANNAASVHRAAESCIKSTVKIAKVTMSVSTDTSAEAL
Sequence of Voltage-dependent L-type calcium channel subunit alpha-1C (P22002 whole entry): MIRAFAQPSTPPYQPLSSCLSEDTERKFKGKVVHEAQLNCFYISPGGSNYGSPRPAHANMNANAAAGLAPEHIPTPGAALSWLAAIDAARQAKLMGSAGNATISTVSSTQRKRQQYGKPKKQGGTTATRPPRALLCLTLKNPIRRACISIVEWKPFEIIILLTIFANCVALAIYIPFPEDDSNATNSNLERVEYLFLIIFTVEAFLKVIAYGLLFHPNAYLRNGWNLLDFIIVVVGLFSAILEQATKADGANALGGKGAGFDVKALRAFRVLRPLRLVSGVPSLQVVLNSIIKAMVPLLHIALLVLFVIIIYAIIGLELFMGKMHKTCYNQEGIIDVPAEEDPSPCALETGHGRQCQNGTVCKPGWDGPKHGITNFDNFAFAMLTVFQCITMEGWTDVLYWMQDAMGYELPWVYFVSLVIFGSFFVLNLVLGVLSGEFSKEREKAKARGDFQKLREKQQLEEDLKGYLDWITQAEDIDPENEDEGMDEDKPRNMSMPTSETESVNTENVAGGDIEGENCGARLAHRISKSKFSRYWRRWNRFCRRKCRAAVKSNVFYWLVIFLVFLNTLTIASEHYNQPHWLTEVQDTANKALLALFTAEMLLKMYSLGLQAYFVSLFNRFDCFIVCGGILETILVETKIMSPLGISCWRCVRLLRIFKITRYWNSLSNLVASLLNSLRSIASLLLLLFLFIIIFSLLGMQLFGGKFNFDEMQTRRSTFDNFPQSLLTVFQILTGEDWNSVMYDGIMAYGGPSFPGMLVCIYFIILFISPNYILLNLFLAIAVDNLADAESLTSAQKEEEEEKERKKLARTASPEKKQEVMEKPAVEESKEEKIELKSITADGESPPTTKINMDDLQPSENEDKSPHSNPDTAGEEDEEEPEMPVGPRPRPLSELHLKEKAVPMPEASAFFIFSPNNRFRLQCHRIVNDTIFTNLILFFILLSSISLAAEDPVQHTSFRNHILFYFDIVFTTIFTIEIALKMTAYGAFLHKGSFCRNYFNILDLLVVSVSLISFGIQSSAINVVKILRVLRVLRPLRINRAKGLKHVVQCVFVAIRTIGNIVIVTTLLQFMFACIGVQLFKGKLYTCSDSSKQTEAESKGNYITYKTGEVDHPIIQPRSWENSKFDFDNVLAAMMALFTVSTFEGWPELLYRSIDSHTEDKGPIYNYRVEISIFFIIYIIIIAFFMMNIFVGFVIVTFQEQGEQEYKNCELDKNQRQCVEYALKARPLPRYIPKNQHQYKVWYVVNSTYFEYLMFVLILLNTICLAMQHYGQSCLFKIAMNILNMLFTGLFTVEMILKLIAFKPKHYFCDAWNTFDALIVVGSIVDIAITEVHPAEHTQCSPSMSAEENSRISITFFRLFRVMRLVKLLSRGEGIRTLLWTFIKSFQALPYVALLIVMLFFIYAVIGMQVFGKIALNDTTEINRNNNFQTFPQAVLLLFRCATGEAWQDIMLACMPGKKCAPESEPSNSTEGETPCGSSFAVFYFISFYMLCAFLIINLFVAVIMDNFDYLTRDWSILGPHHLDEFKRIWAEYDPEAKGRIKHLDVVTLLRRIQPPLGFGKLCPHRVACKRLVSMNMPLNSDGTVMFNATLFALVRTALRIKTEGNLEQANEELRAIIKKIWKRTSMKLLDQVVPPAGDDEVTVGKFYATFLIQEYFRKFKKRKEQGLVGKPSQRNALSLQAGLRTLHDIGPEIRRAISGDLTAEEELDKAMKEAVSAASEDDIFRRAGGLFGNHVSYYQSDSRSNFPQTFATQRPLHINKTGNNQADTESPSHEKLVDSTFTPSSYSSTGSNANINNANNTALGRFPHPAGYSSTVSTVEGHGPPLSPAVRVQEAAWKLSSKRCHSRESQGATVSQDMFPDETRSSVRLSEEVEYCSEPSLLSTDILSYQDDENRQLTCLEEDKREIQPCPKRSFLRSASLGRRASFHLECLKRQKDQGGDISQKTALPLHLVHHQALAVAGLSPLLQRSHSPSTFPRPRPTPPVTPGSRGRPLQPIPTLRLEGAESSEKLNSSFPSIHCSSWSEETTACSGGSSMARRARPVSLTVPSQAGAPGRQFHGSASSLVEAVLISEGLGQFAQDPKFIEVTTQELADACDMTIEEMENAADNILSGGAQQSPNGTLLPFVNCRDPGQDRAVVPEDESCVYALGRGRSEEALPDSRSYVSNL
Sequence of Muscarinic acetylcholine receptor M3 (P20309 whole entry): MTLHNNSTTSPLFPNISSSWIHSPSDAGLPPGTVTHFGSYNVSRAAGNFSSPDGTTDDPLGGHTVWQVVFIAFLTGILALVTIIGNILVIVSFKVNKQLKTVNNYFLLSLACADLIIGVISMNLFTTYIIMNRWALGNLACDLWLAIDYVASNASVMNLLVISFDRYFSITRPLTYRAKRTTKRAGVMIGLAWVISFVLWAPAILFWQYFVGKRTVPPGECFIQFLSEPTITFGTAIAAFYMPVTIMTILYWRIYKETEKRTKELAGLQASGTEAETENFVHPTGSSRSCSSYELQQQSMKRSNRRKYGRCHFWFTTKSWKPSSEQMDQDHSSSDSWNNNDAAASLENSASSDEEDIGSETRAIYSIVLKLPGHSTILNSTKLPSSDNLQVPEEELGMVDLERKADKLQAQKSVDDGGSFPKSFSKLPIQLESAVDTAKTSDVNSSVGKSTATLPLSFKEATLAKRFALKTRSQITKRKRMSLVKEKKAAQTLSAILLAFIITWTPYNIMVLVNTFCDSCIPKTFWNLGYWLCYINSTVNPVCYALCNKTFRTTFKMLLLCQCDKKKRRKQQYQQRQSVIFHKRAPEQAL

For `C=C1CC[C@@]2(O)[C@H]3Cc4ccc(O)c5c4[C@@]2(CCN3CC2CC2)[C@H]1O5`, the AC50 (in assay [1]; in assay [2]; in assay [3]; at Cannabinoid receptor 1; in assay [4]; in assay [5]) was greater than 30 µM throughout. The AC50 (on Endothelin-1 receptor; in [6]; in assay [7]) was greater than 30 µM throughout.
For `CN1CCc2cccc3c2[C@H]1Cc1ccc(O)c(O)c1-3` [APOMORPHINE], the AC50 was greater than 30 µM in assay [1]; greater than 10 µM in [8]; greater than 30 µM in assay [2]; greater than 10 µM in assay [3]; greater than 30 µM at Cannabinoid receptor 1; greater than 10 µM in assay [4]. The half-maximal activity concentration (AC50) was greater than 10 µM in assay [5], greater than 30 µM at Endothelin-1 receptor, 7.3 µM in assay [6] and greater than 30 µM in [7].
With `NC(CO)C(=O)NNCc1ccc(O)c(O)c1O` (centres undefined) [BENSERAZIDE], the AC50 is greater than 30 µM in [1]; greater than 10 µM in assay [8]; greater than 30 µM in assay [2]; greater than 10 µM in assay [3]; greater than 30 µM at Cannabinoid receptor 1; greater than 10 µM in assay [4]. Besides, the half-maximal activity concentration (AC50) is greater than 10 µM in [5], greater than 30 µM at Endothelin-1 receptor, greater than 30 µM in assay [6] and greater than 30 µM in assay [7].
As for `CN(C)C(=O)OC1N=C(c2ccccc2)c2cc(Cl)ccc2N(C)C1=O` (centres undefined) [CAMAZEPAM], the AC50 was greater than 10 µM in assay [1]; greater than 10 µM in [8]; greater than 10 µM in assay [2]; greater than 10 µM in [3]; greater than 30 µM on Cannabinoid receptor 1; greater than 10 µM in assay [4]. Further, the AC50 is greater than 10 µM in assay [5], greater than 30 µM at Endothelin-1 receptor, greater than 30 µM in [6] and greater than 30 µM in [7].
As for `[H]/N=C(/N)c1ccc(NCc2nc3cc(C(=O)N(CCC(=O)O)c4ccccn4)ccc3n2C)cc1` [DABIGATRAN], the AC50 (in assay [1]; in assay [2]; in [3]; on Cannabinoid receptor 1; in assay [4]; in assay [5]) was greater than 30 µM each time. Further, the half-maximal activity concentration (AC50) (on Endothelin-1 receptor; in assay [6]; in assay [7]) was greater than 30 µM throughout.
With `CCCCOc1cc(C(=O)NCCN(CC)CC)c2ccccc2n1` [DIBUCAINE], the AC50 in [1] is greater than 30 µM; in assay [8], greater than 10 µM; in [2] it was greater than 10 µM; in assay [3], greater than 10 µM; at Cannabinoid receptor 1, greater than 30 µM; in assay [4] it was greater than 10 µM. In addition, the AC50 in assay [5], in assay [6] and in assay [7] was greater than 30 µM in each case.
Consider `CC(=O)O[C@@]12CO[C@@H]1C[C@H](O)[C@@]1(C)C(=O)[C@H](O)C3=C(C)[C@@H](OC(=O)[C@H](O)[C@@H](NC(=O)OC(C)(C)C)c4ccccc4)C[C@@](O)([C@@H](OC(=O)c4ccccc4)[C@H]21)C3(C)C` [DOCETAXEL ANHYDROUS], for which the AC50 (in [8]; at Mu-type opioid receptor; in assay [2]; in [3]; in assay [4]; in assay [5]) was greater than 30 µM each time. The AC50 in assay [6] and in assay [7] was greater than 30 µM throughout.
Turning to `CN[C@@H](C)[C@H](O)c1ccccc1` [EPHEDRINE], the AC50 is greater than 10 µM in assay [1]; greater than 10 µM in assay [8]; greater than 10 µM in [2]; greater than 10 µM in assay [3]; greater than 30 µM on Cannabinoid receptor 1; greater than 10 µM in [4]. Also, the AC50 is greater than 10 µM in [5], greater than 30 µM on Endothelin-1 receptor, greater than 30 µM in assay [6] and greater than 30 µM in assay [7].
Consider `COc1c(N2CCNC(C)C2)c(F)cc2c(=O)c(C(=O)O)cn(C3CC3)c12` (centres undefined) [GATIFLOXACIN], for which the AC50 in [8] was greater than 10 µM; on Mu-type opioid receptor it was 28 µM; in assay [2] it was greater than 10 µM; in assay [3] it was greater than 10 µM; in [4] it was greater than 10 µM; in assay [5], greater than 10 µM. In addition, the AC50 in assay [6] was greater than 30 µM; in assay [7], greater than 10 µM.
In the case of `CCC1(C2=CCCCCC2)C(=O)NC(=O)NC1=O` [HEPTABARBITAL], the AC50 in [1] is greater than 30 µM; in assay [8] it was greater than 10 µM; in assay [2], greater than 10 µM; in assay [3] it was greater than 10 µM; on Cannabinoid receptor 1, greater than 30 µM; in [4], greater than 10 µM. Moreover, the AC50 was greater than 10 µM in [5], greater than 30 µM in [6] and greater than 10 µM in assay [7].
Regarding `Cc1cc(-c2ccccc2)nnc1NCCN1CCOCC1` [MINAPRINE], the AC50 in [1] is greater than 10 µM; in assay [8], greater than 10 µM; in [2] it was greater than 10 µM; in assay [3], greater than 10 µM; at Cannabinoid receptor 1, greater than 30 µM; in [4], greater than 10 µM. Further, the AC50 in assay [5] is greater than 10 µM; at Endothelin-1 receptor, greater than 30 µM; in [6], greater than 30 µM; in assay [7], greater than 30 µM.
Regarding `CN1C(=O)CC(c2ccccc2)C1=O` (centres undefined) [PHENSUXIMIDE], the AC50 in [1] is greater than 30 µM; in assay [8], greater than 10 µM; in assay [2], greater than 10 µM; in assay [3], greater than 10 µM; on Cannabinoid receptor 1, greater than 30 µM; in assay [4], greater than 10 µM. Further, the half-maximal activity concentration (AC50) in assay [5] was greater than 10 µM; in assay [6], greater than 30 µM; in assay [7], greater than 10 µM.
Consider `C1COC(NC(C2CC2)C2CC2)=N1` [RILMENIDINE], for which the AC50 is greater than 30 µM in assay [1]; greater than 10 µM in [8]; greater than 30 µM in assay [2]; greater than 10 µM in assay [3]; greater than 30 µM on Cannabinoid receptor 1; greater than 10 µM in [4]. Also, the AC50 in assay [5] is greater than 10 µM; in assay [6], greater than 30 µM; in [7] it was greater than 30 µM.
As for `CC[C@]1(O)C[C@@H]2CN(CCc3c([nH]c4ccccc34)[C@@](C(=O)OC)(c3cc4c(cc3OC)N(C)[C@H]3[C@@](O)(C(N)=O)[C@H](O)[C@]5(CC)C=CCN6CC[C@]43[C@@H]65)C2)C1` [VINDESINE], the AC50 (in assay [8]; on Mu-type opioid receptor; in [2]; in [3]; in [4]; in assay [5]) was greater than 30 µM throughout. Also, the AC50 (on Endothelin-1 receptor; in assay [6]; in assay [7]) was greater than 30 µM throughout.
As for `CN1CCN(C(=O)OC2c3nccnc3C(=O)N2c2ccc(Cl)cn2)CC1` (centres undefined) [ZOPICLONE], the AC50 was greater than 30 µM in assay [1]; greater than 10 µM in assay [8]; greater than 30 µM in [2]; greater than 30 µM in [3]; greater than 30 µM at Cannabinoid receptor 1; greater than 30 µM in [4]. The AC50 in assay [5] was greater than 30 µM; on Endothelin-1 receptor, greater than 30 µM; in assay [6], greater than 10 µM; in assay [7] it was greater than 30 µM.

Source of the values: ChEMBL document CHEMBL5291721, “A preclinical secondary pharmacology resource illuminates target-adverse drug reaction associations of marketed drugs” (Nat Commun, 2023).
